Measurements as given in patent publication US10835624B2, “Compounds for imaging Tau protein aggregates” (AC IMMUNE S.A., priority 2016, dated 2020).
Marks after values point to notes of the source that are not given here.

What was measured:
[1] = target: T1, MAO B (Homo sapiens, UniProt P27338); assay: MAO B 18F-fluoro deprenyl competition assay in human HC brain homogenate; assay type: binding; set-up: Low affinity to MAO B (IC50 in HC homogenate): key: −: poor; ∘: moderate; +: good; ++: very good; +++: excellent
T1 construct: 20 μg of human brain homogenate (without AD pathology); from tissue; host or cells: human brain homogenate without AD pathology (healthy control)
T1 sequence (P27338 1-520): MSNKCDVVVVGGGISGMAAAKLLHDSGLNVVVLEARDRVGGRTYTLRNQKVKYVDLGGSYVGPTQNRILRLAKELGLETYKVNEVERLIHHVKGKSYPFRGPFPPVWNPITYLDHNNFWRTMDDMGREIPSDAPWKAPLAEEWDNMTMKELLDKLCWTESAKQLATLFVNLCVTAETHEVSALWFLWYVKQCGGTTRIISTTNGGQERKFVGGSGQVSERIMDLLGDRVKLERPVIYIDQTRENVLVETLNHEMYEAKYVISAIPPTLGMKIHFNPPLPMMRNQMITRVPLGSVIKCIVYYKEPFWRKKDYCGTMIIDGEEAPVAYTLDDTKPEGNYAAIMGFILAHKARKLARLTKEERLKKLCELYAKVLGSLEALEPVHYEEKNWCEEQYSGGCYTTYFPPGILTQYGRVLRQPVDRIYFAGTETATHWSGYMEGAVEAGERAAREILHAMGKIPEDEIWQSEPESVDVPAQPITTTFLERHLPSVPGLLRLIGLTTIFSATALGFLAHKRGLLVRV
Experimental: The samples were shaken at 110 rpm for 45 min at 37° C. Samples were then filtered through GF/B 96 well filter plates and washed twice with 300 μL assay buffer (PBS containing 0.1% BSA and 2% DMSO). Thereafter, filter plates were sealed and a Fuji Film Imaging Plate (BAS-SR2025) was placed on top. The imaging plate was analyzed after overnight exposition using a Fuji Film BAS-5000. […] IC50 values were calculated by Prism V6 (GraphPad) setting total binding to 100%.

[2] = target: T2, MAO A (Homo sapiens, UniProt P21397); assay: MAO A FEH competition assay in human HC brain homogenate; assay type: binding; set-up: Low affinity to MAO A (IC50 in HC homogenate): key: −: poor; ∘: moderate; +: good; ++: very good; +++: excellent; details: for IC50: human healthy control brain homogenate, FEH competition
T2 construct: 20 μg of human brain homogenate (without AD pathology); from tissue; host or cells: human brain homogenate without AD pathology (healthy control)
T2 sequence (P21397 1-527): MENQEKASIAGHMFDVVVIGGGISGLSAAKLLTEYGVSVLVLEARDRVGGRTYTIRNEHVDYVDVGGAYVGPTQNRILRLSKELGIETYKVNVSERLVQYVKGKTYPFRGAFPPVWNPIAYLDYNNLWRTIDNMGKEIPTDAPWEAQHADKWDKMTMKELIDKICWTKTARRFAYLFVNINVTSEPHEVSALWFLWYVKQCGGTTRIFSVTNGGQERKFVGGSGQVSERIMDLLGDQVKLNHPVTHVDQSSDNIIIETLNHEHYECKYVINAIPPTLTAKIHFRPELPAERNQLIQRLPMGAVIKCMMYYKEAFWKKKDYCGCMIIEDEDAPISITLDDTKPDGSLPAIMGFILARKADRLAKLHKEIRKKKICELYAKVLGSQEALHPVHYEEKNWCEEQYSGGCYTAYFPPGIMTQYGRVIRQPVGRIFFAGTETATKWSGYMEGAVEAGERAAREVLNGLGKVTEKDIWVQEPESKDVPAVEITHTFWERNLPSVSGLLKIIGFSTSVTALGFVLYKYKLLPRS
Experimental: (§1) 20 μg of human brain homogenate (without AD pathology) was incubated with a dilution series of each test compound (1000 to 0.06 nM) in the presence of 800 Bq of ^18F-labeled MAO-A binder ([^18F]fluoroethyl harmine, FEH). The samples were shaken at 110 rpm for 45 min at 37° C. Samples were then filtered through GF/B 96 well filter plates and washed twice with 300 μL assay buffer (PBS containing 0.1% BSA and 2% DMSO). Thereafter, filter plates were sealed and a Fuji Film Imaging Plate (BAS-SR2025) was placed on top. The imaging plate was analyzed after overnight exposition using a Fuji Film BAS-5000. Non-specific signal was determined with samples containing ^18F-labeled FEH in the presence of assay buffer without brain substrate and competitor. […] The unblocked ^18F-labeled FEH signal was defined as total binding. IC50 values were calculated by Prism V6 (GraphPad) setting total binding to 100%.

[3] = PK studies in healthy mice (PET); assay type: in vivo, NMRI mice; set-up: Good brain uptake / Fast washout from healthy brain: key: −: poor; ∘: moderate; +: good; ++: very good; +++: excellent; details: for Low retention in healthy brain / Good brain uptake / Low or minor de-fluorination / Fast washout from healthy brain: grade; for Low retention in healthy brain: healthy mice 60 min after iv injection; for Good brain uptake: healthy mice after iv injection; for Low or minor de-fluorination: bone uptake in healthy mice at 60 min; for Fast washout from healthy brain: healthy mice; for De-fluorination in mice (in words): mouse, in vivo; as to Good brain uptake: key: −: poor; ∘: moderate; +: good; ++: very good; +++: excellent; as to Low or minor de-fluorination: key: −: poor; ∘: moderate; +: good; ++: very good; +++: excellent; as to Low retention in healthy brain: key: −: poor; ∘: moderate; +: good; ++: very good; +++: excellent
Experimental: NMRI mice (weight range 25-35 g) were injected intravenously with the ^18F-labeled compounds. Up to 150 μL of 1×PBS solution with 10%-15% EtOH or dilution medium ([…]) containing the ^18F-labeled compound (2-10 MBq) were injected. Anesthesia with isoflurane was induced before injection of the tracer and maintained during the image acquisition period. PET scans were performed using a SIEMENS INVEON small animal PET/CT scanner (Siemens, Knoxville, Tenn.). PET acquisition was started immediately before the radioactive dose was injected into the animal through the tail vein. Images were generated as dynamic scans for 60 minutes.
The peak uptake in the brain was set to 100% and washout curves were generated to evaluate the clearance of the activity from the normal brain (FIG. 2).

[4] = target: amyloid-beta (Homo sapiens, UniProt P05067); assay: Binding affinity to amyloid-beta in AD brain homogenate; details: non-radioactive derivatives; for IC50: human AD brain homogenate
Sequence of amyloid-beta (P05067 672-711 limits assumed): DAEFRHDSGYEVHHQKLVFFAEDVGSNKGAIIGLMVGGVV
Experimental: as §1, with “human Alzheimer disease” for “human”, “homogenate” for “homogenate (without AD pathology)”, “beta-amyloid binder.” for “MAO-A binder ([^18F]fluoroethyl harmine, FEH).”, “beta-amyloid binder” for “FEH”

[5] = grade, non-radioactive derivatives

IC50 [1] [µM]	IC50 [2] [µM]	Low retention in healthy brain [3]	Good brain uptake [3]	IC50 [4] [µM]	Low or minor de-fluorination [3]	Fast washout from healthy brain [3]	De-fluorination in mice (in words) [3]	Fold higher MAO B IC50 than compound 18F-1 ([1]; HC brain homogenate) [fold]	Low affinity to MAO B (IC50 in HC homogenate) [1, 5]	Fold higher MAO A IC50 than compound 18F-1 ([2]; HC brain homogenate) [fold]	Fold higher MAO A IC50 than compound 18F-2 ([2]; HC brain homogenate) [fold]	Low affinity to MAO A (IC50 in HC homogenate) [2, 5]	Fold faster washout from healthy brain than 18F-1 ([3]; mice) [fold]	Fold lower long-term retention in healthy brain than 18F-1 ([3]; mice) [fold]	Fold lower long-term retention in healthy brain than 18F-2 ([3]; mice) [fold]	Low affinity to amyloid-beta (IC50 in AD brain homogenate) ([4]; grade)	SMILES
0.17	0.005	−	++	> 1													[18F]c1ccc(-c2ccc3c(c2)[nH]c2ccncc23)cn1 [^18F-1]
> 1	0.1		++	> 1	−	++	De-fluorination in mice was found										[18F]c1ccc(-c2ccc3c(n2)[nH]c2ccncc23)cn1 [^18F-2]
> 1	1.1	++	++	> 1	+++	++	No de-fluorination	> 5	+++	220	11	+++	1.6	2.7	2	+++^a)	[18F]c1cc(-c2ccc3c(n2)[nH]c2ccncc23)ccn1 [^18F-3a]
